From paper PMC7334220, “Diamond Blackfan anemia is mediated by hyperactive Nemo-like kinase” (Nature Communications, 2020)
Values joined by “and” are separate entries in the source; they are usually repeats but may differ in a detail not shown here. Equal entries are not always repeated.

Assays:
[1] = tested on: RPS19-insufficient Lin-Kit+ cells; experiment: Erythroid differentiation (Ter119+) of Lin-Kit+ cells from tetracycline-inducible shRPS19 mice; assay type: cell-based, mouse; conditions: SD208 with doxycycline; 8 days; three mice; without SD208 24.3, 20.3, 18.5%; Fig. 8b
Method: Cells were counted and assessed for cell surface expression of CD235. b Lin-Kit^+ hematopoietic progenitors were obtained from three mouse embryos expressing tetracycline-inducible shRNA against RPS19 at day E14.5 or three untreated mice, and thee mature RPL11^+/+ or three mature RPL11^+/lox mice treated with tamoxifen for eight weeks. […] Values were expressed as a percentage relative to untreated controls. c, d Intracellular phosphorylation of NLK at […] was determined by capillary electrophoresis using the Peggy SueTM Automated Western blotting platform. […] After counting the total cell population, the ratio of CD235^+ erythroblasts was determined by flow cytometry and number of CD235^+ erythroblasts calculated. This was expressed as a percentage of the average number of erythroid cells present in untreated healthy controls. f NLK phosphorylation was assessed by capillary electrophoresis as above. Bars represent means ± SD with individual data points overlaid. […] Statistics: two-tailed Student's t test, significant *p < 0.05. Also see Supplementary Fig. 8. Source data are provided as a Source Data file. […] RPS19-insufficiency reduced Ter119^+ erythroblasts to 24.3, 20.3, and 18.5% of controls differentiated in the absence of doxycycline.

p38 [2] = target: T1, p38 (Homo sapiens, UniProt Q16539); experiment: p38 in vitro kinase assay; assay type: biochemical; conditions: Supplementary Fig. 4b; read-out: observed IC50 against p38
T1 construct: endogenous in cells; host or cells: Kp53A1 cells stimulated with IL-3, IL-6, SCF and Epo; immunoprecipitated with a p38 antibody
Method: Equivalent protein was loaded between samples. b—blue Transduced progenitors were differentiated for 15 days and sorted for surface expression of CD235 + , CD41 + and CD11b + population NLK mRNA was assessed by qRT-PCR. c Control and shRPS19-transduced CB progenitors were differentiated for 10 days prior to separation into CD71^+ and CD71^- populations and assessed for pThr298-NLK phosphorylation by Western blot analysis. d—purple CB CD34 + progenitors were transduced with shRNA against luciferase (shLuc) or RPS19 (shRPS19) along with CFP-NLK and YFP-NLK and differentiated for 10 days. NLK dimerization was quantified by FRET. e—left panel NLK was immunoprecipitated from transduced differentiating CD71^+ and CD71^- populations after 10 days, and incubated in the presence of ATP, Mg^2+ and dephosphorylated NLK (i orange), c-Myb (ii—blue) and Raptor (iii—green) for 30 min at 37 °C. Phosphorylation was detected by a combination of anti^-phosphoserine-HRP and anti-phosphothreonine-HRP antibodies, or mouse anti-phosphoserine and anti-mouse-HRP antibodies. e—right panel For comparison, NLK in vitro kinase activity was assessed from CD235^+, CD41^+ and CD11b^+ populations enriched after identical treatments. f A panel of eight small molecule p38 inhibitors were titrated into in vitro kinase assays in the presence of activated NLK or p38 from stimulated Kp53A1 cells. […]

p38 [3] = experiment: Reported p38 inhibition (literature / PubChem); assay type: biochemical; conditions: 850nM vs 440nM; rebuttal letter
From the text: But as p38 can phosphorylate NLK, Myb and Raptor in vitro, we performed a series of experiments that indicate NLK-associated p38 is not contributing to substrate phosphorylation. We determined the IC50 values of a panel of eight p38 inhibitors against p38 and NLK in our in vitro kinase assays. For comparison, reported IC50 values from bioassay results submitted to the National Center for Biotechnology Information PubChem Database were tabulated.

T1 sequence (Q16539 2-360 limits assumed): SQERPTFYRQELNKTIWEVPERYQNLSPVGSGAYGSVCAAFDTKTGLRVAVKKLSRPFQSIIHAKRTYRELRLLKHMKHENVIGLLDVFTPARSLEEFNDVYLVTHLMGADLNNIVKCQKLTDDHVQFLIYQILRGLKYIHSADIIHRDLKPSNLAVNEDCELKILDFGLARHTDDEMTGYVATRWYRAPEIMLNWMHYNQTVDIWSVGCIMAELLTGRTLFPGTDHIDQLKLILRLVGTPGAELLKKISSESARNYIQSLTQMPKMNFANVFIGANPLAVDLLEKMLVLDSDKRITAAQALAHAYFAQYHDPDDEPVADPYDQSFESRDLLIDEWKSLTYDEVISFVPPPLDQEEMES

Structure (SMILES): Fc1ccc(Cl)cc1-c1nc(Nc2ccncc2)c2nccnc2n1 [SD208]
- Ter119+ erythroblasts, % of controls differentiated without doxycycline [1]: 83.2% and 81.1% and 76.6%
- IC50 (p38 [2]): 910 nM
- reported p38 IC50 compared to observed NLK IC50 (p38 [3]): 2 fold
